Data reported in US8071555B2, “Protective skin care peptides” (Helix BioMedix Inc., priority 2007, dated 2011).
Values joined by “and” are separate entries in the source; they are usually repeats but may differ in a detail not shown here. Identical values can stand only once. One block for each compound: values may come before it. Ends that are not written are not given here. Peptide text beside a SMILES is read from it. * marks the point of attachment. Decanoyl = CCCCCCCCCC(=O)*

Assays:
IL-6 expression [1] = assay: UVB-induced IL-6 expression in human skin epithelial cells (ELISA); type: cell-based; details: for reduction of IL-6 levels: skin epithelial cells treated with UVB; for repression of UVB-induced IL-6 expression: skin epithelial cells, peptide 40 μg/mL, 24 hours post UVB
Method: (§1) Human skin epithelial cells (ATCC CRL-2592), keratinocytes (ATCC CRL-2404) and skin fibroblasts (ATCC CRL-7481) were employed in the study. Cells were seeded into 6-well plates and allowed to grow to >95% confluence in Dulbecco's modified Eagle's medium (DMEM; 4 mM L-glutamine, 4.5 g/L glucose) adjusted to contain 1.5 g/L sodium bicarbonate and supplemented with 10% fetal bovine serum (FBS). For keratinocytes, cells were grown in keratinocyte growth media (without serum) supplemented with 5 ng/mL human recombinant epithelial growth factor (EGF; Invitrogen, Grand Island, N.Y.). After the cell monolayer reached >95% confluence, the cells were serum-starved or EGF-starved for 24 hours in complete medium without serum. UVA or UVB was generated using a UVLMS lamp (4-W model, 3UV assembly; Upland, Calif.) with the irradiation wavelength set at 365 or 302 nm, respectively. The UV lamp was placed 15 cm above the tissue culture plate. Before UV treatment, the tissue culture media was replaced with PBS, after which the cells were placed under the UVB lamp (450 μW/cm^2, measured using a radiometer) for 35 seconds (epithelial cells and fibroblasts) or 25 seconds (keratinocytes). UVA treatment was conducted (500 μW/cm^2) for 30 seconds with fibroblasts. After UV treatment, PBS was immediately replaced with complete medium (without serum or EGF) containing either no peptide or peptide at a specified concentration, and the plates were incubated at 37° C., 5% CO2 for 15-24 hours. The cell media was then collected and spun down at 15000 rpm for 2 minutes to remove cell debris. IL-6 and MMP-1 levels in the media were measured, respectively, using human IL-6 (DIACLONE, Stamford, Conn.) and MMP-1 (Calbiochem, San Diego, Calif.) ELISA kits according to manufacturers' instructions. These measurements served as indicators of cell inflammatory activity in response to UV exposure.
All the tetrapeptides listed in Table I were subjected to a screening test at 40 μg/mL for potential down-regulation of this response (data not shown).
P1422 (SEQ ID NO:1) reduced IL-6 levels by 19% and 25% at 10 and 20 μg/mL, respectively; and P1423 (SEQ ID NO:2) reduced IL-6 levels by 10% and 20% at 10 and 20 μg/mL, respectively.

MMP-1 expression [2] = assay: UVA-induced MMP-1 expression in human skin fibroblasts (ELISA); type: cell-based; details: UVA 500 μW/cm^2, peptide 10 μg/mL
Method: as §1, with “UVA treatment was conducted (500 μW/cm^2) for 30 seconds with fibroblasts. After UV treatment, PBS was immediately replaced with complete medium (without serum or EGF) containing either no peptide or peptide at a specified concentration, and the plates were incubated at 37° C., 5% CO2 for 15-24 hours. The cell media was then collected and spun down at 15000 rpm for 2 minutes to remove cell debris.” left out, “These measurements served as indicators of cell inflammatory activity in response to UV exposure.” left out

MMP-1 expression [3] = assay: MMP-1 induction in fibroblasts incubated in media conditioned by UVB-treated keratinocytes (ELISA); type: cell-based, human; details: peptide 10 μg/mL
Method: as §1, with “UVA treatment was conducted (500 μW/cm^2) for 30 seconds with fibroblasts. After UV treatment, PBS was immediately replaced with complete medium (without serum or EGF) containing either no peptide or peptide at a specified concentration, and the plates were incubated at 37° C., 5% CO2 for 15-24 hours. The cell media was then collected and spun down at 15000 rpm for 2 minutes to remove cell debris.” left out, “These measurements served as indicators of cell inflammatory activity in response to UV exposure.” left out

IL-6 expression [4] = assay: UVB-induced IL-6 expression in human skin fibroblasts (ELISA); type: cell-based; details: human fibroblasts after UVB
Method: as §1
Such peptide-mediated IL-6 down-regulation was also evident in human fibroblasts after exposure to UVB.

IL-6 expression [5] = assay: UVB-induced IL-6 expression in human keratinocytes (ELISA); type: cell-based; details: UVB-treated human keratinocytes; peptide 10 μg/mL
Method: as §1, with “UVA treatment was conducted (500 μW/cm^2) for 30 seconds with fibroblasts. After UV treatment, PBS was immediately replaced with complete medium (without serum or EGF) containing either no peptide or peptide at a specified concentration, and the plates were incubated at 37° C., 5% CO2 for 15-24 hours. The cell media was then collected and spun down at 15000 rpm for 2 minutes to remove cell debris.” left out, “These measurements served as indicators of cell inflammatory activity in response to UV exposure.” left out

plasmin = molecular target: T1, plasmin (Homo sapiens, UniProt P00747); assay: Peptide degradation by plasmin with or without protease inhibitor (LC/MS); type: in vitro ADME; details: for Survival: peptide 1 mg/mL
T1 construct: purchased Sigma-Aldrich
T1 sequence (P00747 581-810 limits assumed, species assumed): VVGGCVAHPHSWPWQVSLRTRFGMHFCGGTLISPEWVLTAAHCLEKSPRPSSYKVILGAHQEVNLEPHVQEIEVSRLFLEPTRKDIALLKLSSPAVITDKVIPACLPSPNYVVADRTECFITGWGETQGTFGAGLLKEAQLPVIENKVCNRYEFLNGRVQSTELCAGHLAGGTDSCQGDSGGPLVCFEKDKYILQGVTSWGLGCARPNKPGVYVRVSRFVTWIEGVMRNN
T1 sequence (P00747 97-580 limits assumed, species assumed): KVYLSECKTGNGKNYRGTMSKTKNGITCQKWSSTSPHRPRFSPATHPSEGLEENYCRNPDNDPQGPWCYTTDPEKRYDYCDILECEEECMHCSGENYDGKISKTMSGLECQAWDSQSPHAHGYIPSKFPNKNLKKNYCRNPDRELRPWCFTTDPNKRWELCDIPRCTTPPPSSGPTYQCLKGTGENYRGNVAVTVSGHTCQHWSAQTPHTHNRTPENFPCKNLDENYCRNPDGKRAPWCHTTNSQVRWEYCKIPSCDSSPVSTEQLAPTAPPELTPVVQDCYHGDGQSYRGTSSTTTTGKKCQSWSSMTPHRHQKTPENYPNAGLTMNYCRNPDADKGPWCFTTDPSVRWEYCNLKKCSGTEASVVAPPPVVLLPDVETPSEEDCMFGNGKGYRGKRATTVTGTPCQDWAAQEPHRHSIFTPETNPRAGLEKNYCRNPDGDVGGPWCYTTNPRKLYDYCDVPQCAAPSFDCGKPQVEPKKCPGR
Method: (§2) Peptides of synthetic origin and LL-37 were used in the protease processing experiments at a concentration of 1-2 mg/mL in 0.5M MOPS pH 8.5/0.5M NaCl final buffer concentration. Proteases were used at a concentration of 0.020-0.050 mg/mL.
(§3) Experiments were run in pairs, one with protease inhibitor and one without a protease inhibitor. Liquid chromatography/mass spectrometry (LC/MS) spectra were collected at approximately 1-minute, 1-hour, 4-hour and 24-hour time points from the time of adding protease to the peptide (time zero). LC/MS spectra were collected using a standard reverse phase gradient starting at 5% acetonitrile and ramping up to 65% acetonitrile in 25 minutes.
(§4) The proteases employed in the study were initially dissolved in a 1M NaCl solution, while the peptides were dissolved in 1M MOPS buffer at pH 8.5. The solutions were equilibrated to 37° C. and then mixed at a ratio of 1:1 to start each experiment. Lower buffer concentrations were also used (0.1M MOPS pH 8.5 and 0.2M NaCl). Protease inhibitors were tested at several different concentrations (low and high from 0.02 mg/mL to 40 mg/mL) against a given protease.
(§5) The mass spectrometer used in these studies has a limit of detection below which the specific molecular weight of a molecule cannot be identified from the TIC trace. In these below-detection situations, it was assumed that the tested peptide was completely degraded.
(§6) A series of experiments were performed employing the above-described methodology to determine the utility of the invention as it regards a wider range of proteases, peptides and protease inhibitors. If, at any specific time-point, there was no detectable parent peptide (i.e., the absence of non-degraded peptide), then that time-point was documented as the time required for peptide degradation.

kallikrein = assay: Peptide degradation by kallikrein with or without protease inhibitor (LC/MS); type: in vitro ADME; details: Kallikrein 25 μg/mL, peptide 1 mg/mL
Method: as §2, §3, §4
The mass spectrometer used in these studies has a limit of detection below which the specific molecular weight of a molecule cannot be identified from the TIC trace. In these below-detection situations, it was assumed that the tested peptide was completely degraded. […]

elastase = assay: Peptide degradation by elastase with or without protease inhibitor (LC/MS); type: in vitro ADME; details: Elastase 25 μg/mL, peptide 1 mg/mL
Method: as §2, §3, §4, §5, §6

chymotrypsin = molecular target: T2, chymotrypsin (Bos taurus, UniProt P00766); assay: Peptide degradation by chymotrypsin with or without protease inhibitor (LC/MS); type: in vitro ADME; details: peptide 1 mg/mL
T2 construct: purchased Sigma-Aldrich
Method: as §2, §3, §4, §5, §6

trypsin = assay: Peptide degradation by trypsin with or without protease inhibitor (LC/MS); type: in vitro ADME; details: for Survival: Trypsin 25 μg/mL, peptide 1 mg/mL
Method: as §2, §3, §4, §5, §6

Compound: PQEI-NH2 [P1423, tetrapeptide amidated at the carboxy terminus]
- reduction of IL-6 levels (IL-6 expression [1]; peptide 10 μg/mL): 10%
- reduction of IL-6 levels (IL-6 expression [1]; peptide 20 μg/mL): 20%
- repression of UVB-induced IL-6 expression (IL-6 expression [1]): reproducible repression
- down-regulation of UVA-induced MMP-1 expression (MMP-1 expression [2]): able to down-regulate
- MMP-1 induction (MMP-1 expression [3]): far less MMP-1 induction
- reduction of IL-6 levels compared to control (IL-6 expression [4]; peptide 2 μg/mL): 24%
- reduction of IL-6 levels compared to control (IL-6 expression [4]; peptide 5 μg/mL): 30%
- reduction of IL-6 levels compared to control (IL-6 expression [4]; peptide 10 μg/mL): 48%
- down-regulation of IL-6 expression (IL-6 expression [5]): down-regulate IL-6 expression

- amount of parental peptide by XIC trace compared to plasmin alone (plasmin; plasmin plus tranexamic acid vs plasmin alone): five-times greater
- degradation of peptide (TIC and XIC traces) (plasmin; plasmin, no inhibitor, 4-hour exposure): most of the HB64 peptide was degraded
- parent peak in TIC traces (trypsin): reduced over time
Compound: FAKALKALLKALKAL-NH2 [HB64, FAKALKALLKALKAL-NH2]
- Survival (plasmin; Plasmin 20 μg/mL, no protease inhibitor): <4 h
- Survival (plasmin; Plasmin 22 μg/mL, tranexamic acid 40 mg/mL): <24 h
- Survival (plasmin; Plasmin 25 μg/mL, no protease inhibitor): <4 h and <6 h
- Survival (plasmin; Plasmin 46 μg/mL, no protease inhibitor): <4 h
- Survival (plasmin; Plasmin 50 μg/mL, tranexamic acid 10 mg/mL): <6 h
- protection of peptide (TIC and XIC traces) (plasmin; plasmin plus tranexamic acid, 4-hour exposure): protected from plasmin-mediated proteolysis
- Survival (kallikrein; no protease inhibitor): <24 h
- Survival (kallikrein; tranexamic acid 0.80 mg/mL): <24 h
- Survival (elastase; aprotinin 0.02 mg/mL): <1 h
- Survival (elastase; no protease inhibitor): <1 h
- Survival (elastase; tranexamic acid 0.80 mg/mL): <1 h
- Survival (chymotrypsin; Chymotrypsin 25 μg/mL, aprotinin 0.02 mg/mL): <24 h
- Survival (chymotrypsin; Chymotrypsin 25 μg/mL, no protease inhibitor): <1 h

Compound: CCCCCCCCCC(=O)N[C@@H](CCCCN)C(=O)N[C@@H](Cc1ccccc1)C(=O)N[C@@H](CCCCN)C(=O)N[C@@H](Cc1c[nH]c2ccccc12)C(=O)N1CCC[C@H]1C(=O)N[C@@H](Cc1c[nH]c2ccccc12)C(N)=O [HB1345, decanoyl-KFKWPW-NH2] (Decanoyl-KFKWPW-NH2)
- Survival (trypsin; aprotinin 0.02 mg/mL): >24 h
- Survival (trypsin; no protease inhibitor): <1 h

Compound: PQEK-NH2 [P1422, tetrapeptide amidated at the carboxy terminus]
- reduction of IL-6 levels (IL-6 expression [1]; peptide 10 μg/mL): 19%
- reduction of IL-6 levels (IL-6 expression [1]; peptide 20 μg/mL): 25%
- repression of UVB-induced IL-6 expression (IL-6 expression [1]): reproducible repression
- down-regulation of UVA-induced MMP-1 expression (MMP-1 expression [2]): able to down-regulate
- MMP-1 induction (MMP-1 expression [3]): far less MMP-1 induction
- reduction of IL-6 levels compared to control (IL-6 expression [4]; peptide 10 μg/mL): 30%
- reduction of IL-6 (IL-6 expression [4]; peptide concentrations lower than 10 μg/mL): no significant reduction
- down-regulation of IL-6 expression (IL-6 expression [5]): down-regulate IL-6 expression

Compound: FALLKL-NH2 [HB168]
- Survival (trypsin; aprotinin 0.02 mg/mL): >24 h
- Survival (trypsin; no protease inhibitor): <1 h

Compound: CC[C@H](C)[C@H](NC(=O)[C@H](CCCCN)NC(=O)[C@H](CCC(=O)O)NC(=O)[C@H](CCCCN)NC(=O)[C@H](CO)NC(=O)[C@H](CCCCN)NC(=O)[C@H](CCCNC(=N)N)NC(=O)[C@H](Cc1ccccc1)NC(=O)[C@H](Cc1ccccc1)NC(=O)[C@H](CC(=O)O)NC(=O)CNC(=O)[C@H](CC(C)C)NC(=O)[C@@H](N)CC(C)C)C(=O)NCC(=O)N[C@@H](CCCCN)C(=O)N[C@@H](CCC(=O)O)C(=O)N[C@@H](Cc1ccccc1)C(=O)N[C@@H](CCCCN)C(=O)N[C@@H](CCCNC(=N)N)C(=O)N[C@H](C(=O)N[C@H](C(=O)N[C@@H](CCC(N)=O)C(=O)N[C@@H](CCCNC(=N)N)C(=O)N[C@H](C(=O)N[C@@H](CCCCN)C(=O)N[C@@H](CC(=O)O)C(=O)N[C@@H](Cc1ccccc1)C(=O)N[C@@H](CC(C)C)C(=O)N[C@@H](CCCNC(=N)N)C(=O)N[C@@H](CC(N)=O)C(=O)N[C@@H](CC(C)C)C(=O)N[C@H](C(=O)N1CCC[C@H]1C(=O)N[C@@H](CCCNC(=N)N)C(=O)N[C@H](C(=O)N[C@@H](CCC(=O)O)C(=O)N[C@@H](CO)C(=O)O)[C@@H](C)O)C(C)C)[C@@H](C)CC)C(C)C)[C@@H](C)CC [LL-37]
- parent peptide detection (plasmin): undetectable
- Survival (plasmin; Plasmin 22 μg/mL, no protease inhibitor): <1 h
- Survival (plasmin; Plasmin 22 μg/mL, no protease inhibitor, Expt. 38): <0.75 h
- Survival (plasmin; Plasmin 22 μg/mL, tranexamic acid 9 mg/mL): <4 h
- Survival (chymotrypsin; Chymotrypsin 22 μg/mL, no protease inhibitor): <1 h
- Survival (chymotrypsin; Chymotrypsin 22 μg/mL, tranexamic acid 9 mg/mL): <1 h
